Source: patent US20060116407A1, “Amide derivatives” (priority 2004, published 2006)

Tested on: HEK293 cells
Assay: Viability assay of HEK293 cells (CellTiter-Glo)
Assay type: cell-based
Details: Homo sapiens, 168 h, 7 days, 3 μM to 0.00015 μM, luminescence
Experimental: Viability Assay of HEK293 Cells
A viability assay was performed using the CellTiter-Glo™ Luminescent Cell Viability Assay (see Promega Corporation's Technical Publication No. 288, pp. 1-11 [revised 2.04] which is hereby incorporated by reference in its entirety). This assay is a homogeneous method of determining the number of viable cells in culture based on quantitation of the ATP present, which signals the presence of metabolically active cells. The assay is designed for use with multiwell formats, making it ideal for automated high-throughput screening (HTS), cell proliferation and cytotoxicity assays. The homogeneous assay procedure involves adding a single reagent (containing luciferase, luciferan substrate, and buffer) directly to cells cultured in serum-supplemented medium. Cell washing, removal of medium and multiple pipetting steps are not required. The system detects as few as 15 cells/well in a 384-well format in 10 minutes after adding reagent and mixing.
The homogeneous “add-mix-measure” format results in cell lysis and generation of a luminescent signal proportional to the amount of ATP present. The amount of ATP is directly proportional to the number of cells present in culture. The above-referenced assay generates a “glow-type” luminescent signal, produced by the luciferase reaction, which has a half-life generally greater than five hours, depending on cell type and medium used. The extended half-life eliminates the need to use reagent injectors and provides flexibility for continuous or batch mode processing of multiple plates. The unique homogeneous format avoids errors that may be introduced by other ATP measurement methods that require multiple steps.
HEK293 cells (human embryonic kidney cell line transformed by Adenovirus 5 fragments, ATCC-No. CRL 1573) were cultivated in Dulbecco's Modified Eagle Medium (DMEM) (1×) liquid (high glucose) (which includes L-Alanyl-L-Glutamine [a stabilized a form of L-Glutamine], 4500 mg/L glucose, and 110 mg/L sodium pyruvate) from Invitrogen Corporation (Invitrogen Catalog Number 31966-021 [now 10569-010] which is hereby incorporated by reference in its entirety), 5% Fetal Calf Serum (FCS, Sigma Cat-No. F4135 (FBS) which is hereby incorporated by reference in its entirety), and 100 Units/ml penicillin/100 μg/ml streptomycin(=Pen/Strep from Invitrogen Cat. No. 15140 which is hereby incorporated by reference in its entirety). For the assay the cells were seeded in 384 well plates, 5000 cells per well, in the same medium. The next day the test compounds were added in various concentrations ranging from 3 μM to 0.00015 μM (10 concentrations, 1:3 diluted). After 7 days the above viability assay was performed in accordance with the following steps: • Step 1: The cell-plate was equilibrated to room temperature for approximately 30 minutes and than the assay reagent was added. • Step 2: The contents were carefully mixed for 15 minutes to induce cell lysis. • Step 3: After 45 minutes the luminescent signal was measured in Victor 2, (scanning multiwell spectrophotometer, Wallac). Details: 1st Day: • Medium: Dulbecco's Modified Eagle Medium (DMEM) (1×) liquid (high glucose) (which includes L-Alanyl-L-Glutamine [a stabilized a form/source of L-Glutamine], 4500 mg/L glucose, and 110 mg/L sodium pyruvate) from Invitrogen Corporation (Invitrogen Catalog Number 31966-021 [now 10569-010]), 5% Fetal Calf Serum (FCS, Sigma Cat-No. F4135 (FBS)), and Pen/Strep (Invitrogen Cat. No. 15140). • HEK293 (ATCC-No. CRL 1573): 5000 cells in 60 μl per well of 384 well plate. (Greiner 781098, white plates) • Incubate 24 h at 37° C., 5% CO2 2nd Day: Induction (Substance Testing):
In general the dilution steeps are 1:3 a) Add 8 μl of 10 mM stock solution of compound to 72 μl DMSO b) dilute 9×1:3 (always 30 μl to 60 μl DMSO) in this DMSO dilution row (results in 10 wells with concentrations from 1000 μM to 0.06 μM) c) dilute each concentration 1: 4.8 (10 μl compound dilution to 38 μl medium) […]

O=C(Nc1ccc(C(F)(F)F)cc1[N+](=O)[O-])c1coc(COc2ccc(CCCCn3ccnn3)cc2)n1 [Example 4, 2-[4-(4-[1,2,3]Triazol-1-yl-butyl)-phenoxymethyl]-oxazole-4-carboxylic acid (2-nitro-4-trifluoromethyl-phenyl)-amide]
IC50: 127 nM

O=C(Nc1cc(F)cc(F)c1)c1coc(COc2ccc(CCCCn3ccnn3)cc2)n1 [Example 5, 2-[4-(4-[1,2,3]Triazol-1-yl-butyl)-phenoxymethyl]-oxazole-4-carboxylic acid (3,5-difluoro-phenyl)-amide]
IC50: 5 to 500 nM

O=C(Nc1ccc(Cl)cc1)c1coc(COc2ccc(CCCCn3ccnn3)cc2)n1 [Example 6, 2-[4-(4-[1,2,3]Triazol-1-yl-butyl)-phenoxymethyl]-oxazole-4-carboxylic acid (4-chloro-phenyl)-amide]
IC50: 500 to 3000 nM

O=C(Nc1ccc(SC(F)F)cc1)c1coc(COc2ccc(CCCCn3ccnn3)cc2)n1 [Example 8, 2-[4-(4-[1,2,3]Triazol-1-yl-butyl)-phenoxymethyl]-oxazole-4-carboxylic acid (4-difluoromethylsulfanyl-phenyl)-amide]
IC50: 5 to 500 nM

O=C(Nc1ccc(F)c(Cl)c1)c1coc(COc2ccc(CCCCn3ccnn3)cc2)n1 [Example 12, 2-[4-(4-[1,2,3]Triazol-1-yl-butyl)-phenoxymethyl]-oxazole-4-carboxylic acid (3-chloro-4-fluoro-phenyl)-amide]
IC50: 5 to 500 nM

Cc1c(F)cccc1NC(=O)c1coc(COc2ccc(CCCCn3ccnn3)cc2)n1 [Example 20, 2-[4-(4-[1,2,3]Triazol-1-yl-butyl)-phenoxymethyl]-oxazole-4-carboxylic acid (3-fluoro-2-methyl-phenyl)-amide]
IC50: 500 to 3000 nM

O=C(Nc1ccc(F)c([N+](=O)[O-])c1)c1coc(COc2ccc(CCCCn3ccnn3)cc2)n1 [Example 21, 2-[4-(4-[1,2,3]Triazol-1-yl-butyl)-phenoxymethyl]-oxazole-4-carboxylic acid (4-fluoro-3-nitro-phenyl)-amide]
IC50: 5 to 500 nM

CSc1ccc(NC(=O)c2coc(COc3ccc(CCCCn4ccnn4)cc3)n2)cc1 [Example 24, 2-[4-(4-[1,2,3]Triazol-1-yl-butyl)-phenoxymethyl]-oxazole-4-carboxylic acid (4-methylsulfanyl-phenyl)-amide]
IC50: 1060 nM

Cc1cc(F)ccc1NC(=O)c1coc(COc2ccc(CCCCn3ccnn3)cc2)n1 [Example 25, 2-[4-(4-[1,2,3]Triazol-1-yl-butyl)-phenoxymethyl]-oxazole-4-carboxylic acid (4-fluoro-2-methyl-phenyl)-amide]
IC50: 5 to 500 nM

O=C(Nc1ccc(Cl)c(C(F)(F)F)c1)c1coc(COc2ccc(CCCCn3ccnn3)cc2)n1 [Example 27, 2-[4-(4-[1,2,3]Triazol-1-yl-butyl)-phenoxymethyl]-oxazole-4-carboxylic acid (4-chloro-3-trifluoromethyl-phenyl)-amide]
IC50: 5 to 500 nM

Cc1ccc(NC(=O)c2coc(COc3ccc(CCCCn4ccnn4)cc3)n2)cc1 [Example 28, 2-[4-(4-[1,2,3]Triazol-1-yl-butyl)-phenoxymethyl]-oxazole-4-carboxylic acid p-tolylamide]
IC50: 500 to 3000 nM

CN(C(=O)c1coc(COc2ccc(CCCCn3ccnn3)cc2)n1)c1ccccc1 [Example 29, 2-[4-(4-[1,2,3]Triazol-1-yl-butyl)-phenoxymethyl]-oxazole-4-carboxylic acid methyl-phenyl-amide]
IC50: 500 to 3000 nM

CN(C(=O)c1coc(COc2ccc(CCCCn3ccnn3)cc2)n1)c1ccc(OC(F)(F)F)cc1 [Example 30, 2-[4-(4-[1,2,3]Triazol-1-yl-butyl)-phenoxymethyl]-oxazole-4-carboxylic acid methyl-(4-trifluoromethoxy-phenyl)-amide]
IC50: 5 to 500 nM

O=C(Nc1ccccc1F)c1coc(COc2ccc(CCCCn3ccnn3)cc2)n1 [Example 33, 2-[4-(4-[1,2,3]Triazol-1-yl-butyl)-phenoxymethyl]-oxazole-4-carboxylic acid (2-fluoro-phenyl)-amide]
IC50: 5 to 500 nM

O=C(Nc1ccc(Cl)cc1)c1csc(COc2ccc(CCCCn3ccnn3)cc2)n1 [Example 42, 2-[4-(4-[1,2,3]Triazol-1-yl-butyl)-phenoxymethyl]-thiazole-4-carboxylic acid (4-chloro-phenyl)-amide]
IC50: 5 to 500 nM

O=C(Nc1c(Cl)cccc1Cl)c1coc(COc2ccc(CCCCn3ccnn3)cc2)n1 [Example 44, 2-[4-(4-[1,2,3]Triazol-1-yl-butyl)-phenoxymethyl]-oxazole-4-carboxylic acid (2,6-dichloro-phenyl)-amide]
IC50: 5 to 500 nM

Cc1cc(OCc2nc(C(=O)Nc3ccc(C(F)(F)F)cc3)co2)ccc1CCCCn1ccnn1 [Example 46, 2-[3-Methyl-4-(4-[1,2,3]triazol-1-yl-butyl)-phenoxymethyl]-oxazole-4-carboxylic acid (4-trifluoromethyl-phenyl)-amide]
IC50: 5 to 500 nM

Cc1cc(OCc2nc(C(=O)Nc3cccc(Cl)c3)co2)ccc1CCCCn1ccnn1 [Example 48, 2-[3-Methyl-4-(4-[1,2,3]triazol-1-yl-butyl)-phenoxymethyl]-oxazole-4-carboxylic acid (3-chloro-phenyl)-amide]
IC50: 5 to 500 nM

Cc1cc(OCc2nc(C(=O)Nc3cccc(Cl)c3)cs2)ccc1CCCCn1ccnn1 [Example 51, 2-[3-Methyl-4-(4-[1,2,3]triazol-1-yl-butyl)-phenoxymethyl]-thiazole-4-carboxylic acid (3-chloro-phenyl)-amide]
IC50: 5 to 500 nM

O=C(Nc1nc(COc2ccc(CCCCn3ccnn3)cc2)cs1)c1ccc([N+](=O)[O-])cc1 [Example 52-1, 4-Nitro-N-{4-[4-(4-[1,2,3]triazol-1-yl-butyl)-phenoxymethyl]-thiazol-2-yl}-benzamide]
IC50: 5 to 500 nM

O=C(Nc1nc(COc2ccc(CCCCn3ccnn3)cc2)cs1)c1cccc(C(F)(F)F)c1 [Example 52-2, N-{4-[4-(4-[1,2,3]Triazol-1-yl-butyl)-phenoxymethyl]-thiazol-2-yl}-3-trifluoromethyl-benzamide]
IC50: 500 to 3000 nM

O=C(Nc1nc(COc2ccc(CCCCn3ccnn3)cc2)cs1)c1ccc(OC(F)(F)F)cc1 [Example 52-4, N-{4-[4-(4-[1,2,3]Triazol-1-yl-butyl)-phenoxymethyl]-thiazol-2-yl}-4-trifluoromethoxy-benzamide]
IC50: 5 to 500 nM

O=C(Nc1nc(COc2ccc(CCCCn3ccnn3)cc2)cs1)c1ccc(Cl)c(F)c1 [Example 52-6, 4-Chloro-3-fluoro-N-{4-[4-(4-[1,2,3]triazol-1-yl-butyl)-phenoxymethyl]-thiazol-2-yl}-benzamide]
IC50: 5 to 500 nM

O=C(Nc1nc(COc2ccc(CCCCn3ccnn3)cc2)cs1)c1ccc(SC(F)(F)F)cc1 [Example 52-7, N-{4-[4-(4-[1,2,3]Triazol-1-yl-butyl)-phenoxymethyl]-thiazol-2-yl}-4-trifluoromethylsulfanyl-benzamide]
IC50: 5 to 500 nM

O=C(Nc1nc(COc2ccc(CCCCn3ccnn3)cc2)cs1)c1ccc(Cl)c(Cl)c1 [Example 52-9, 3,4-Dichloro-N-{4-[4-(4-[1,2,3]triazol-1-yl-butyl)-phenoxymethyl]-thiazol-2-yl}-benzamide]
IC50: 5 to 500 nM

O=C(Nc1nc(COc2ccc(CCCCn3ccnn3)cc2)cs1)c1cccc(Cl)c1 [Example 52-12, 3-Chloro-N-{4-[4-(4-[1,2,3]triazol-1-yl-butyl)-phenoxymethyl]-thiazol-2-yl}-benzamide]
IC50: 5 to 500 nM
